# Results from PubChem BioAssay AID328 (DTP/NCI, 2004).
# “And” between values parts separate entries of the source, which are not always exact repeats. Identical values can stand only once. Inconclusive results and toxic doses are left out.
# Test system: BDF1 mice, P388 leukemia ip, median survival T/C
# Test: NCI In Vivo Anticancer Drug Screen. Data for tumor model P388 Leukemia (intraperitoneal) in B6D2F1 (BDF1) mice
# Settings: endpoint: median survival time, higher = longer survival
# Procedure, shortened: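 Vehicle-dosed animals serve as the reference; survival of compound-dosed, tumour-implanted mice is divided by it.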
# [1] = dose: 100.0 mg/kg/injection, schedule: Q01DX010 (ip), vehicle: saline
# [2] = dose: 400.0 mg/kg/injection, schedule: Q01DX010 (ip), vehicle: saline
# [3] = dose: 50.0 mg/kg/injection, schedule: Q01DX009 (ip), vehicle: saline with Tween-80
# [4] = dose: 100.0 mg/kg/injection, schedule: Q01DX009 (ip), vehicle: saline with Tween-80
# [5] = dose: 200.0 mg/kg/injection, schedule: Q01DX009 (ip), vehicle: saline with Tween-80
# [6] = dose: 400.0 mg/kg/injection, schedule: Q01DX009 (ip), vehicle: saline with Tween-80
# [7] = dose: 100.0 mg/kg/injection, schedule: Q04DX003 (ip), vehicle: saline with Tween-80
# [8] = dose: 200.0 mg/kg/injection, schedule: Q04DX003 (ip), vehicle: saline with Tween-80
# [9] = dose: 400.0 mg/kg/injection, schedule: Q04DX003 (ip), vehicle: saline with Tween-80
# [10] = dose: 6.25 mg/kg/injection, schedule: Q01DX009 (ip), vehicle: saline with Tween-80
# [11] = dose: 12.5 mg/kg/injection, schedule: Q01DX009 (ip), vehicle: saline with Tween-80
# [12] = dose: 25.0 mg/kg/injection, schedule: Q01DX009 (ip), vehicle: saline with Tween-80
# [13] = dose: 25.0 mg/kg/injection, schedule: Q04DX003 (ip), vehicle: saline
# [14] = dose: 100.0 mg/kg/injection, schedule: Q01DX001 (ip), vehicle: saline sonified
# [15] = dose: 200.0 mg/kg/injection, schedule: Q01DX001 (ip), vehicle: saline sonified
# [16] = dose: 100.0 mg/kg/injection, schedule: Q01DX009 (ip), vehicle: saline
# [17] = dose: 400.0 mg/kg/injection, schedule: Q01DX009 (ip), vehicle: saline
structure (smiles),measurement,setting,value
CC1(C)SC2C(NC(=O)C(C(=O)O)c3ccccc3)C(=O)N2C1C(=O)O (stereo not drawn),T/C,"dose: 50.0 mg/kg/injection, schedule: Q01DX010 (ip), vehicle: saline",122 % of control
same,T/C,[1],113 % of control
same,T/C,"dose: 200.0 mg/kg/injection, schedule: Q01DX010 (ip), vehicle: saline",113 % of control
same,T/C,[2],118 % of control
CCN(CC)CCOc1ccccc1C,T/C,"dose: 20.0 mg/kg/injection, schedule: Q01DX009 (ip), vehicle: saline",107 % of control
same,T/C,"dose: 20.0 mg/kg/injection, schedule: Q04DX003 (ip), vehicle: saline",100 % of control
same,T/C,"dose: 40.0 mg/kg/injection, schedule: Q01DX009 (ip), vehicle: saline",100 % of control
same,T/C,"dose: 40.0 mg/kg/injection, schedule: Q04DX003 (ip), vehicle: saline",91 % of control
same,T/C,"dose: 80.0 mg/kg/injection, schedule: Q01DX009 (ip), vehicle: saline",89 % of control
same,T/C,"dose: 80.0 mg/kg/injection, schedule: Q04DX003 (ip), vehicle: saline",91 % of control
O=[N+]([O-])c1ccc2c(c1)[nH]c1ccccc12,T/C,[3],113 % of control
same,T/C,[4],115 % of control
same,T/C,[5],114 % of control
CC1(C)N=C(N)N=C(N)N1c1ccc(-c2ccccc2)cc1,T/C,"dose: 25.0 mg/kg/injection, schedule: Q01DX009 (ip), vehicle: Klucel (hydroxypropylcellulose) (HPC)",99 % of control
same,T/C,"dose: 50.0 mg/kg/injection, schedule: Q01DX009 (ip), vehicle: Klucel (hydroxypropylcellulose) (HPC)",106 % of control
CC(CN(C)C)C(=O)/C=C/c1ccccc1 (stereo not drawn),T/C,"dose: 18.75 mg/kg/injection, schedule: Q01DX009 (ip), vehicle: saline",100 % of control
same,T/C,"dose: 37.5 mg/kg/injection, schedule: Q01DX009 (ip), vehicle: saline",109 % of control
same,T/C,"dose: 75.0 mg/kg/injection, schedule: Q01DX009 (ip), vehicle: saline",109 % of control
NC(CSC(c1ccccc1)(c1ccccc1)c1ccc(Cl)cc1)C(=O)O (stereo not drawn),T/C,"dose: 33.0 mg/kg/injection, schedule: Q04DX003 (ip), vehicle: saline with Tween-80",190 % of control
same,T/C,[3],272 % of control
same,T/C,"dose: 50.0 mg/kg/injection, schedule: Q04DX003 (ip), vehicle: saline with Tween-80",190 % of control
same,T/C,"dose: 75.0 mg/kg/injection, schedule: Q04DX003 (ip), vehicle: saline with Tween-80",272 % of control
c1ccc(-c2nnc3oc(-c4cccs4)nn23)cc1,T/C,[4],86 % of control
same,T/C,[5],90 % of control
same,T/C,[6],90 % of control
CCCNC1=C(C)C(=O)C2=C(C1=O)[C@H](COC(N)=O)[C@]1(OC)[C@@H]3N[C@@H]3CN21,T/C,"dose: 2.0 mg/kg/injection, schedule: Q01DX009 (ip), vehicle: saline sonified",205 % of control
same,T/C,"dose: 2.0 mg/kg/injection, schedule: Q01DX009 (ip), vehicle: saline",180 % of control
same,T/C,"dose: 3.0 mg/kg/injection, schedule: Q01DX009 (ip), vehicle: saline",200 % of control
same,T/C,"dose: 3.13 mg/kg/injection, schedule: Q01DX009 (ip), vehicle: saline sonified",150 % of control
Cc1c(C)c([N+](=O)[O-])c(Br)c(C)c1[N+](=O)[O-],T/C,[4],95 % of control
same,T/C,[7],104 % of control
same,T/C,"dose: 132.0 mg/kg/injection, schedule: Q04DX003 (ip), vehicle: saline with Tween-80",109 % of control
same,T/C,[5],90 % of control
same,T/C,[8],118 % of control
same,T/C,"dose: 300.0 mg/kg/injection, schedule: Q04DX003 (ip), vehicle: saline with Tween-80",100 % of control
same,T/C,[6],95 % of control
same,T/C,[9],122 % of control
Cc1ccc(N2CCN(CCCN3CCN(c4ccccc4Cl)CC3)CC2)cc1,T/C,[10],86 % of control
same,T/C,"dose: 6.25 mg/kg/injection, schedule: Q04DX003 (ip), vehicle: saline",104 % of control
same,T/C,[11],95 % of control
same,T/C,"dose: 12.5 mg/kg/injection, schedule: Q04DX003 (ip), vehicle: saline",100 % of control
same,T/C,[12],100 % of control
same,T/C,[13],104 % of control
C1CC[N-]CC1.C1CC[N-]CC1.[Cl][Pt+2]([Cl])([Cl])[Cl],T/C,[4],95 % of control
same,T/C,[5],90 % of control
COc1ccc2cc(OC)ccc2c1,T/C,[14],100 % of control
same,T/C,[15],100 % of control
same,T/C,"dose: 400.0 mg/kg/injection, schedule: Q01DX001 (ip), vehicle: saline sonified",100 % of control
CCCCCCCCCCCCCCCCCCCCCCCCC(O)C(=O)NC(CO)C(O)C(O)CCCCCCCCCCCCCC (stereo not drawn),T/C,[9],87 % of control
C[C@]12CC[C@H]3[C@@H](CC[C@]4(O)C[C@@H](O)CC[C@]34/C=N/O)[C@@]1(O)CC[C@@H]2C1=COC(=O)C1,T/C,"dose: 1.87 mg/kg/injection, schedule: Q01DX010 (ip), vehicle: carboxymethylcellulose (CMC)",94 % of control
same,T/C,"dose: 3.75 mg/kg/injection, schedule: Q01DX010 (ip), vehicle: carboxymethylcellulose (CMC)",100 % of control
same,T/C,"dose: 7.5 mg/kg/injection, schedule: Q01DX010 (ip), vehicle: carboxymethylcellulose (CMC)",111 % of control
same,T/C,"dose: 15.0 mg/kg/injection, schedule: Q01DX010 (ip), vehicle: carboxymethylcellulose (CMC)",116 % of control
same,T/C,"dose: 30.0 mg/kg/injection, schedule: Q01DX010 (ip), vehicle: carboxymethylcellulose (CMC)",111 % of control
same,T/C,"dose: 60.0 mg/kg/injection, schedule: Q01DX010 (ip), vehicle: carboxymethylcellulose (CMC)",122 % of control
COc1ccc(/C=C/C(=N\O)c2ccc(OC)c(OC)c2)cc1OC,T/C,"dose: 25.0 mg/kg/injection, schedule: Q01DX009 (ip), vehicle: saline",118 % of control
same,T/C,[13],105 % of control
same,T/C,"dose: 50.0 mg/kg/injection, schedule: Q01DX009 (ip), vehicle: saline",97 % of control
same,T/C,"dose: 50.0 mg/kg/injection, schedule: Q04DX003 (ip), vehicle: saline",96 % of control
same,T/C,[16],120 % of control
same,T/C,"dose: 100.0 mg/kg/injection, schedule: Q04DX003 (ip), vehicle: saline",105 % of control
same,T/C,"dose: 200.0 mg/kg/injection, schedule: Q04DX003 (ip), vehicle: saline",114 % of control
same,T/C,[17],103 % of control
same,T/C,"dose: 400.0 mg/kg/injection, schedule: Q04DX003 (ip), vehicle: saline",105 % of control
OCC(O)C(O)C(O)C(O)CO (stereo not drawn),T/C,"dose: 100.0 mg/kg/injection, schedule: Q01DX010 (ip), vehicle: carboxymethylcellulose (CMC)",100 % of control
same,T/C,[1],95 % of control
same,T/C,"dose: 400.0 mg/kg/injection, schedule: Q01DX010 (ip), vehicle: carboxymethylcellulose (CMC)",100 % of control
same,T/C,[2],105 % of control and 110 % of control
Cc1cc2nc3c(=O)[nH]c(=O)nc-3n(CCOC(=O)CCC(=O)O)c2cc1C,T/C,"dose: 50.0 mg/kg/injection, schedule: Q01DX009 (ip), vehicle: saline sonified",100 % of control
same,T/C,"dose: 100.0 mg/kg/injection, schedule: Q01DX009 (ip), vehicle: saline sonified",100 % of control
same,T/C,"dose: 200.0 mg/kg/injection, schedule: Q01DX009 (ip), vehicle: saline sonified",118 % of control
O=S(=O)(Cl)CCCBr,T/C,"dose: 50.0 mg/kg/injection, schedule: Q01DX001 (ip), vehicle: saline sonified",100 % of control
same,T/C,[14],100 % of control
same,T/C,[15],100 % of control
CCOC(=O)CCN(C)C,T/C,[16],102 % of control
same,T/C,"dose: 200.0 mg/kg/injection, schedule: Q01DX009 (ip), vehicle: saline",95 % of control
same,T/C,[17],102 % of control
CC1(C)C/C(=C\c2ccc(Cl)cc2)C(=O)c2ccccc21,T/C,"dose: 100.0 mg/kg/injection, schedule: Q04DX003 (ip), vehicle: Klucel (hydroxypropylcellulose) (HPC)",100 % of control
same,T/C,"dose: 200.0 mg/kg/injection, schedule: Q04DX003 (ip), vehicle: Klucel (hydroxypropylcellulose) (HPC)",100 % of control
same,T/C,"dose: 400.0 mg/kg/injection, schedule: Q04DX003 (ip), vehicle: Klucel (hydroxypropylcellulose) (HPC)",91 % of control
CCCCCNC(=O)Nc1cccc(Cl)c1C,T/C,[10],116 % of control
same,T/C,[11],109 % of control
same,T/C,[12],108 % of control
same,T/C,[3],99 % of control
COC(=O)C1SCc2ccccc2C1=O (stereo not drawn),T/C,[7],104 % of control
same,T/C,[8],105 % of control
same,T/C,[9],105 % of control
CC(=O)c1c(C)oc(C)c1C(C)=O,T/C,[7],103 % of control
same,T/C,[8],111 % of control
same,T/C,[9],96 % of control
CS(=O)CC(O)(c1ccccc1)c1ccncc1 (stereo not drawn),T/C,[3],99 % of control
same,T/C,[4],112 % of control
same,T/C,[5],110 % of control
